{"source": "patent US6927210B1", "about": "“Ectoparasiticidal aqueous suspension formulations of spinosyns” (Eli Lilly and Company, priority 1999, dated 2005)", "assay": "Solution state of spinosad in dip water", "type": "physicochemical", "conditions": "5 and 50 ppm", "protocol": "Two trials were conducted to determine the degree to which spinosad is removed (stripped) from dip water after dipping sheep. In the trials, spinosad dip tank concentrations of 50 ppm and 5 ppm were prepared from an aqueous suspension containing 25 g/L of spinosad. Both trials involved dipping 10 Dorset-cross shorn sheep in 70 gallons (265 liters) of treated water. Each animal was dipped for 30 seconds duration, with the head immersed twice. Samples of dip water were taken for HPLC analysis, initially and after each sheep was dipped. The pH of the water was also determined after each animal was dipped. A dip tank concentration of 5 ppm of spinosad should provide lice control on sheep.", "data": [{"substance": "spinosad", "values": [{"measurement": "Solution state in dip water (in words)", "value": "in true solution at 5 and 50 ppm concentration"}]}]}
